# Data from patent publication US20130109049A1, “Method of Establishing a Fungal Nail Infection” (NOVABIOTICS LIMITED, priority 2009, published 2013).
# Key:
# [1] = test system: clinical isolates T. rubrum DM 2006 1661, T. rubrum DM 2006 1358, T. mentagrophytes DM 2006 1503, T. mentagrophytes DM 2006 1498; experiment: Ex vivo human nail fragment model, treatment, clinical isolates of Trichophyton spp.; type: cell-based; conditions: Experiment 3
# Description: (§1) Trichophyton rubrum strain NCPF0118 was obtained from the National Collection of Pathogenic Fungi, Bristol, UK. Clinical isolates of T. rubrum DM2006 1661, T. rubrum DM2006 1358, T. mentagrophytes DM2006 1503, T. mentagrophytes DM2006 1498 were isolated from patients suffering a range of tinea infections and were purchased from Professor Michel Monod (Service de Dermatologie, Université de Lausanne, Switzerland). Clinical isolates of Candida samples were also obtained from patients suffering from Candidal infection.
# The experiment was performed as described in Experiment 1 with modifications relating to the vehicle, concentrations and fungal strains used. […]
# At the end of the treatment period, the nail fragments were placed in sterile 2 ml microcentrifuge tubes containing 450 μl of a suspension broth consisting of Sabouraud's Liquid Medium, pH 5.6, containing approximately 100 mg of sterile zirconia beads (0.5 mm diameter). […] Colonies were counted on dishes that contained between 20 and 200 colonies in total, and the total number of cfu present in each sample was calculated. […] The counts were corrected for the surface area of the nails studied to give cfu/cm^2, transformed to log10 and means and standard errors of the mean were calculated using GraphPad Prism 4 (GraphPad, San Diego, Calif.). […]
# Candida = experiment: Ex vivo human nail fragment model, treatment of Candida infection; type: cell-based; conditions: Experiments 6 and 7; 10% (w/v); 14 d or 28 d, daily
# Description: as §1
# The procedure was carried out as described for Example 1 above with modifications to the vehicle, and fungal strains used. Each nail was inoculated with 10 μl of a spore suspension of Candida. Following inoculation the nails were treated with 10% (w/v) Novexatin® (NP213) in a vehicle solution of 50% (w/v) PEG 8000 plus 20% (w/v) urea; 10% (w/v) NP339 in a vehicle solution of 50% (w/v) PEG 8000 plus 20% (w/v) urea; 10% (w/v) NP339 in a vehicle solution of water; a control solution of 50% (w/v) PEG 8000 plus 20% (w/v) urea; a control solution of water; a solution of 16 μg/ml Itraconazole® and 1.6% (w/v) DMSO in a vehicle solution of water and a control solution of 1.6% (w/v) DMSO. As for Experiment 1 above, nail fragments were treated daily for up to 28 days. […]
# At the end of the treatment period, the nail fragments were placed in sterile 2 ml microcentrifuge tubes containing 450 μl of a suspension broth consisting of Sabouraud's Liquid Medium, pH 5.6, containing approximately 100 mg of sterile zirconia beads (0.5 mm diameter). […] Colonies were counted on dishes that contained between 20 and 200 colonies in total, and the total number of cfu present in each sample was calculated. […] The counts were corrected for the surface area of the nails studied to give cfu/cm^2, transformed to log10 and means and standard errors of the mean were calculated using GraphPad Prism 4 (GraphPad, San Diego, Calif.). […] When very low numbers of colonies were detected, as in Experiment 3, the calculated cfu values are shown in order to indicate trends.
# [2] = test system: T. interdigitale NCPF0335; experiment: Ex vivo human nail fragment model, prevention of infection; type: cell-based, Trichophyton interdigitale; conditions: Experiment 8
# Description: Six nail fragments were obtained. Three were assigned to each of two different infection prevention protocols, involving daily application of 2 different vehicle solutions, each containing a control and 3 different concentrations of Novexatin® (NP213). These vehicle solutions were: 50% (w/v) PEG 8000, and 50% (w/v) PEG 8000 plus 20% (w/v) urea. The concentrations of Novexatin® (NP213) studied were 0% (control), 1% (Novexatin® 1), 5% (Novexatin® 2) and 10% (Novexatin® 3) (w/v). The solutions were applied at a volume of 10 μl/cm^2, corrected for the surface area of the different nail fragments as described above. The applied solution was spread over the dorsal side of the nail, to mimic the intended clinical treatment and the ventral side of the nail rested on the agar surface. Each time the nails were contacted with the vehicle solutions, they were transferred to a new sterile Petri dish containing PBS agar to minimise any build-up of fungal growth on the agar. Nail fragments were contacted with the vehicle solutions daily for 7 days. Following such contact, each nail fragment was contacted with 10 μl of a spore suspension of T. interdigitale NCPF0335 which was prepared as described above. The spore suspension was applied to the ventral side of the nail (i.e. the side next to the skin in situ). […]
# T. rubrum NCPF0118 = experiment: In vitro MIC100 testing; type: cell-based, Trichophyton rubrum; conditions: versus T. rubrum NCPF0118; revealed in separate tests
# [3] = test system: four clinical isolates of Trichophyton spp.; experiment: In vitro MIC testing of clinical isolates; type: cell-based
# Description: However, this difference in activity is not reflected in human nail tissue, which should be considered a more appropriate model for activity testing for antimicrobials of this type.
# [4] = test system: Trichophyton rubrum strain NCPF0118; experiment: Ex vivo human nail fragment model, treatment of established infection (cfu recovered); type: cell-based
substance,measurement,setting,value
7 to 200-mer (SEQ ID NO: 3) polyarginine [Novexatin® (NP213)],effect on survival of clinical isolates (dose dependence),"[1]; 0%, 5%, 10% (w/v) in 50% PEG 8000 + 20% urea",dose-dependent
same,effectiveness of treatment compared with T. rubrum NCPF0118,[1]; four clinical isolates,as effective as that observed when T. rubrum NCPF0118 was used
same,recoverable fungal growth after treatment,Candida,no recoverable fungal growth
same,fungal growth on pre-treated nail fragments,"[2]; pre-treated daily for 7 days (1%, 5%, 10% w/v), after 24 hours from spore contact",no fungal growth
same,fungal growth on pre-treated nail fragments,[2]; up to 14 days after contact with spore suspension,No fungal growth was observed
same,concentration equal to 100× the MIC100,T. rubrum NCPF0118,~10 % (w/v)
same,susceptibility of clinical isolates compared to T. rubrum NCPF0118,[3],less susceptible
same,killing of T. rubrum NCPF0118,"[4]; 10% (w/v) in 50% (w/v) PEG 8000 vehicle, 28 d of treatment",> 99.9%
same,fungal colonies isolated from nail fragments,"[4]; Experiment 1, 10% (w/v), both presence and absence of urea, daily 28 days",no colonies were isolated
same,effect of treatment on fungal survival (dose dependence),"[4]; Experiment 2, 0%, 2.5%, 5%, 10% (w/v) in 50% PEG 8000 + 20% urea",dose-dependent effect
same,reduction in fungal survival,"[4]; Experiment 2, 2.5% and 5.0% (w/v), daily",significant reductions in fungal survival
same,reduction in fungal survival,"[4]; Experiment 2, 2.5%, 5.0% and 10.0% (w/v), alternate days",the reduction in fungal survival was significant
same,reduction of fungal survival relative to Experiment 1,"[4]; Experiment 2, 5% (w/v), difference not statistically significant",less effective in reducing fungal survival than observed in Experiment 1
same,fungal colonies recovered,"[4]; Experiment 2, 10% (w/v) applied daily, PEG 8000 + 20% urea",no fungal colonies were recovered
same,decrease in survival of the fungus compared to controls,"[4]; Experiment 2, 10% (w/v) applied on alternate days",~3 log10
same,fungal colonies recovered,"[4]; Experiment 2, 10% (w/v) applied on alternate days, PEG 8000 + 20% urea",small numbers of colonies were recovered
same,visual examination of nail fragments,"[4]; Experiment 2, after 28 d treatment, versus vehicle alone (FIG. 7)",no visual evidence of fungal infection
same,effect of simulated washing on antifungal efficacy,"[4]; Experiment 4, nail surface wiped with sterile water before application",did not affect the antifungal efficacy
same,fungal colonies recovered,"[4]; Experiment 4, washed or unwashed nail fragments, 28 days",No fungal colonies were recovered
